# Values joined by “and” are separate entries in the source; they are usually repeats but may differ in a detail not shown here. Equal values may be shown once. Read-outs that look alike come from different tables or passages of the source.
# Tests used:
# HsProRS = HsProRS (Homo sapiens, UniProt P07814); experiment: TR-FRET ligand displacement assay with tracer MAT379 (CoraFluor-1-Halo and anti-His6 antibody formats); assay type: binding; design: made in house; host or cells: E. coli SoluBL-21; conditions: for TR-FRET dose-response, normalized signal (SI Fig 11): individual replicates; for normalized TR-FRET signal (dose-response replicates): SI Fig 15, antibody format
# HsProRS, sequence (P07814 996-1512): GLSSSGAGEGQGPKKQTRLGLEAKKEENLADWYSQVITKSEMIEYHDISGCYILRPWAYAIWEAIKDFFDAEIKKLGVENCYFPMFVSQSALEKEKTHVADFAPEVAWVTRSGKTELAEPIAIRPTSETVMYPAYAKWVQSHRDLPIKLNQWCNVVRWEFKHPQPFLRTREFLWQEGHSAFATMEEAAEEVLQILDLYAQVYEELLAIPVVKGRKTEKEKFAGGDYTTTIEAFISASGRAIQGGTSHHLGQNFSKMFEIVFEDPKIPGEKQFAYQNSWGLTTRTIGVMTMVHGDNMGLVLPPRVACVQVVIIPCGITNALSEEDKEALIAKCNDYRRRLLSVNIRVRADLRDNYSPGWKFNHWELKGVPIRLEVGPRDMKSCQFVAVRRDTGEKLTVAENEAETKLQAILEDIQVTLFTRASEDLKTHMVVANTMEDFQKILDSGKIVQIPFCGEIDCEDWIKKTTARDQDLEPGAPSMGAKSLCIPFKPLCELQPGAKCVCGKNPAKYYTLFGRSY
# PfcProRS = target: T1, PfcProRS (Plasmodium falciparum, UniProt Q8I5R7); assay type: binding; conditions: for dose-response signal (normalized), SI Fig 8: single replicates, listed as Halofuginone (1)
# T1 construct: made in house; host or cells: E. coli SoluBL-21
# T1 sequence (Q8I5R7 249-746): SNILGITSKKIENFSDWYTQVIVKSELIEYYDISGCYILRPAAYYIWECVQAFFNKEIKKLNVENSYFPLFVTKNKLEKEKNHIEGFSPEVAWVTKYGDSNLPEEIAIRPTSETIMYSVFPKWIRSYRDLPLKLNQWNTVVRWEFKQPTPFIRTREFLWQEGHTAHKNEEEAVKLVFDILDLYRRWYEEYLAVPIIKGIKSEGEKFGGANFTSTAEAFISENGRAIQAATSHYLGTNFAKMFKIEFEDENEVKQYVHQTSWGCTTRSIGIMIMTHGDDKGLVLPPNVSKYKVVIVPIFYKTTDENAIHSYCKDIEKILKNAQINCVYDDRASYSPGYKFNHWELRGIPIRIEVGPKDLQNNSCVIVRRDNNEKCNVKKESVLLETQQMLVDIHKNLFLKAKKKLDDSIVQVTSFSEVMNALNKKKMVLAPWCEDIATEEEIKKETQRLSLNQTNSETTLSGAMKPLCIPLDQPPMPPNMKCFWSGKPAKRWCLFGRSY
smiles,measurement,setting,value
O=C(CC1NCCCC1O)Cn1cnc2cc(Br)c(Cl)cc2c1=O (centres unmarked) [Halofuginone],"TR-FRET dose-response, normalized signal (SI Fig 11)","HsProRS; Log[inhibitor] (M) -5.903, listed as Halofuginone (1)",5.30E-01 and 5.36E-01 and 5.41E-01
same,"normalized TR-FRET ligand displacement signal, dose-response replicates (SI Fig 6)","HsProRS; Log[inhibitor] (M) -6.018, listed as Halofuginone (1)",1.05E+00 and 1.10E+00 and 1.02E+00
same,normalized TR-FRET signal (Fig 2j),HsProRS; Log[inhibitor] (M) -6.204,8.25E-01 and 9.54E-01 and 7.75E-01
same,"TR-FRET dose-response, normalized signal (SI Fig 11)","HsProRS; Log[inhibitor] (M) -6.204, listed as Halofuginone (1)",7.34E-01 and 7.40E-01 and 6.73E-01
same,"normalized TR-FRET ligand displacement signal, dose-response replicates (SI Fig 6)","HsProRS; Log[inhibitor] (M) -6.281, listed as Halofuginone (1)",1.08E+00 and 1.03E+00 and 1.07E+00
same,normalized TR-FRET signal (Fig 2j),HsProRS; Log[inhibitor] (M) -6.505,1.04E+00 and 9.85E-01 and 1.03E+00
same,"TR-FRET dose-response, normalized signal (SI Fig 11)",HsProRS; Log[inhibitor] (M) -6.505,7.32E-01
same,"TR-FRET dose-response, normalized signal (SI Fig 11)","HsProRS; Log[inhibitor] (M) -6.505, listed as Halofuginone (1)",7.86E-01 and 7.92E-01
same,"normalized TR-FRET ligand displacement signal, dose-response replicates (SI Fig 6)","HsProRS; Log[inhibitor] (M) -6.535, listed as Halofuginone (1)",1.04E+00 and 1.03E+00 and 9.64E-01
same,"normalized TR-FRET ligand displacement signal, dose-response replicates (SI Fig 6)","HsProRS; Log[inhibitor] (M) -6.796, listed as Halofuginone (1)",1.04E+00 and 1.03E+00 (2×)
same,normalized TR-FRET signal (Fig 2j),HsProRS; Log[inhibitor] (M) -6.806,9.63E-01 and 9.86E-01 and 9.32E-01
same,"TR-FRET dose-response, normalized signal (SI Fig 11)","HsProRS; Log[inhibitor] (M) -6.806, listed as Halofuginone (1)",8.94E-01 and 8.80E-01 and 8.52E-01
same,"normalized TR-FRET ligand displacement signal, dose-response replicates (SI Fig 6)","HsProRS; Log[inhibitor] (M) -7.056, listed as Halofuginone (1)",1.05E+00 and 1.11E+00 and 1.07E+00
same,"TR-FRET dose-response, normalized signal (SI Fig 11)","HsProRS; Log[inhibitor] (M) -7.107, listed as Halofuginone (1)",9.88E-01 and 8.65E-01 and 9.16E-01
same,"normalized TR-FRET ligand displacement signal, dose-response replicates (SI Fig 6)","HsProRS; Log[inhibitor] (M) -7.319, listed as Halofuginone (1)",1.04E+00 (2×) and 1.02E+00
same,normalized TR-FRET signal (Fig 2j),HsProRS; Log[inhibitor] (M) -7.408,1.05E+00 and 9.28E-01 and 8.93E-01
same,"TR-FRET dose-response, normalized signal (SI Fig 11)","HsProRS; Log[inhibitor] (M) -7.408, listed as Halofuginone (1)",9.10E-01 and 9.40E-01 and 9.15E-01
same,"normalized TR-FRET ligand displacement signal, dose-response replicates (SI Fig 6)",HsProRS; Log[inhibitor] (M) -7.553,1.10E+00
same,"normalized TR-FRET ligand displacement signal, dose-response replicates (SI Fig 6)","HsProRS; Log[inhibitor] (M) -7.553, listed as Halofuginone (1)",1.16E+00
same,normalized TR-FRET signal (Fig 2j),HsProRS; Log[inhibitor] (M) -7.709,9.59E-01 and 9.28E-01 and 9.82E-01
same,"TR-FRET dose-response, normalized signal (SI Fig 11)","HsProRS; Log[inhibitor] (M) -7.709, listed as Halofuginone (1)",9.34E-01 (2×) and 9.38E-01
same,"normalized TR-FRET ligand displacement signal, dose-response replicates (SI Fig 6)","HsProRS; Log[inhibitor] (M) -7.796, listed as Halofuginone (1)",1.10E+00 and 1.04E+00 and 1.03E+00
same,normalized TR-FRET signal (Fig 2j),HsProRS; Log[inhibitor] (M) -8.010,9.03E-01 and 1.00E+00 and 9.95E-01
same,"TR-FRET dose-response, normalized signal (SI Fig 11)","HsProRS; Log[inhibitor] (M) -8.010, listed as Halofuginone (1)",9.18E-01 and 9.71E-01 and 9.55E-01
same,"normalized TR-FRET ligand displacement signal, dose-response replicates (SI Fig 6)","HsProRS; Log[inhibitor] (M) -8.097, listed as Halofuginone (1)",1.01E+00 and 1.03E+00 and 1.08E+00
same,normalized TR-FRET signal (Fig 2j),HsProRS; Log[inhibitor] (M) -8.311,9.63E-01 and 1.06E+00 and 1.04E+00
same,"TR-FRET dose-response, normalized signal (SI Fig 11)","HsProRS; Log[inhibitor] (M) -8.311, listed as Halofuginone (1)",9.28E-01 and 9.37E-01 and 9.39E-01
same,"normalized TR-FRET ligand displacement signal, dose-response replicates (SI Fig 6)","HsProRS; Log[inhibitor] (M) -8.398, listed as Halofuginone (1)",1.06E+00 and 1.03E+00 and 1.05E+00
same,"normalized TR-FRET ligand displacement signal, dose-response replicates (SI Fig 6)","HsProRS; Log[inhibitor] (M) -8.585, listed as Halofuginone (1)",1.04E+00 and 1.03E+00 and 1.02E+00
same,normalized TR-FRET signal (Fig 2j),HsProRS; Log[inhibitor] (M) -8.612,1.10E+00 and 1.01E+00 and 9.98E-01
same,"TR-FRET dose-response, normalized signal (SI Fig 11)","HsProRS; Log[inhibitor] (M) -8.612, listed as Halofuginone (1)",9.43E-01 and 9.93E-01 and 8.80E-01
same,normalized TR-FRET signal (Fig 2j),HsProRS; Log[inhibitor] (M) -8.913,1.04E+00 and 1.15E+00 and 9.02E-01
same,"TR-FRET dose-response, normalized signal (SI Fig 11)","HsProRS; Log[inhibitor] (M) -8.913, listed as Halofuginone (1)",9.29E-01 and 9.23E-01 and 1.01E+00
same,normalized TR-FRET signal (Fig 2j),HsProRS; Log[inhibitor] (M) -9.214,9.13E-01 and 9.87E-01 and 1.00E+00
same,"TR-FRET dose-response, normalized signal (SI Fig 11)","HsProRS; Log[inhibitor] (M) -9.214, listed as Halofuginone (1)",1.03E+00 and 9.64E-01 and 9.56E-01
same,normalized TR-FRET signal (dose-response replicates),"HsProRS; Log[inhibitor] (M) -7, listed as Halofuginone (1)",-5.10E-02 and 1.45E-01 and 6.11E-02 and -8.68E-02 and 8.71E-02 and -1.63E-01
same,normalized TR-FRET signal (dose-response replicates),"HsProRS; Log[inhibitor] (M) -7.301, listed as Halofuginone (1)",-1.11E-01 and 1.65E-02 and 1.81E-01 and 1.03E-01 and -9.48E-02 and 1.44E-01
same,normalized TR-FRET signal (dose-response replicates),"HsProRS; Log[inhibitor] (M) -7.602, listed as Halofuginone (1)",-2.32E-02 and 2.15E-01 and 1.05E-01 and 1.32E-01 and 1.04E-01 and 2.19E-02
same,normalized TR-FRET signal (dose-response replicates),"HsProRS; Log[inhibitor] (M) -7.902, listed as Halofuginone (1)",1.55E-01 and 5.85E-02 and 2.37E-01 and 1.20E-01 and -3.85E-02 and 1.09E-01
same,normalized TR-FRET signal (dose-response replicates),"HsProRS; Log[inhibitor] (M) -8.206, listed as Halofuginone (1)",1.08E-02 and 1.11E-01 and 2.70E-01 and 1.81E-01 and 6.79E-02 and 2.75E-01
same,normalized TR-FRET signal (dose-response replicates),"HsProRS; Log[inhibitor] (M) -8.507, listed as Halofuginone (1)",1.46E-01 and 1.20E-01 and 1.73E-01 and 3.30E-01 and 1.53E-01 and 2.25E-01
same,normalized TR-FRET signal (dose-response replicates),"HsProRS; Log[inhibitor] (M) -8.797, listed as Halofuginone (1)",4.78E-02 and 3.34E-01 and 2.48E-01 and 1.28E-01 and 3.36E-01 and 3.00E-01
same,normalized TR-FRET signal (dose-response replicates),"HsProRS; Log[inhibitor] (M) -9.098, listed as Halofuginone (1)",4.47E-01 and 3.74E-01 and 3.80E-01 and 4.11E-01 and 4.02E-01 and 4.65E-01
same,normalized TR-FRET signal (dose-response replicates),"HsProRS; Log[inhibitor] (M) -9.407, listed as Halofuginone (1)",2.38E-01 and 7.71E-01 and 7.58E-01 and 8.49E-01 and 6.67E-01 and 6.46E-01
same,normalized TR-FRET signal (dose-response replicates),"HsProRS; Log[inhibitor] (M) -9.708, listed as Halofuginone (1)",8.31E-01 and 9.16E-01 and 9.30E-01 and 9.90E-01 and 7.66E-01 and 7.98E-01
same,normalized TR-FRET signal (dose-response replicates),"HsProRS; Log[inhibitor] (M) -10.018, listed as Halofuginone (1)",7.34E-01 and 7.78E-01 and 9.27E-01 and 9.57E-01 and 7.69E-01 and 9.42E-01
same,normalized TR-FRET signal (dose-response replicates),"HsProRS; Log[inhibitor] (M) -10.319, listed as Halofuginone (1)",1.03E+00 and 8.60E-01 and 1.21E+00 and 9.50E-01 and 1.14E+00 and 9.79E-01
same,normalized TR-FRET signal (dose-response replicates),"HsProRS; Log[inhibitor] (M) -10.62, listed as Halofuginone (1)",1.02E+00 and 8.83E-01 and 9.73E-01 and 1.04E+00 and 9.53E-01 and 9.56E-01
same,normalized TR-FRET signal (dose-response replicates),"HsProRS; Log[inhibitor] (M) -10.921, listed as Halofuginone (1)",1.01E+00 and 1.12E+00 and 1.14E+00 and 9.45E-01 and 8.05E-01 and 9.06E-01
same,normalized TR-FRET signal (dose-response replicates),"HsProRS; Log[inhibitor] (M) -11.098, listed as Halofuginone (1)",9.11E-01 and 1.15E+00 and 1.13E+00 and 1.03E+00 and 9.58E-01 and 9.14E-01
same,"binding mode with respect to substrates (ATP, proline)",PfcProRS,ATP-uncompetitive binding
same,fold increased affinity in the presence of ATP,PfcProRS; 500 μM ATP vs 0 μM ATP,> 6000 fold
same,"dose-response signal (normalized), SI Fig 8",PfcProRS; Log[inhibitor] (M) -5.000,7.25E-01 and 6.60E-01 and 7.89E-01
same,"dose-response signal (normalized), SI Fig 8",PfcProRS; Log[inhibitor] (M) -5.258,8.77E-01 and 7.58E-01 and 8.28E-01
same,"dose-response signal (normalized), SI Fig 8",PfcProRS; Log[inhibitor] (M) -5.517,8.36E-01 and 8.59E-01 and 9.08E-01
same,"dose-response signal (normalized), SI Fig 8",PfcProRS; Log[inhibitor] (M) -5.775,9.71E-01 and 9.45E-01 and 1.00E+00
same,"dose-response signal (normalized), SI Fig 8",PfcProRS; Log[inhibitor] (M) -6.018,9.98E-01 and 1.00E+00 and 1.01E+00
same,"dose-response signal (normalized), SI Fig 8",PfcProRS; Log[inhibitor] (M) -6.281,9.70E-01 and 1.00E+00 and 9.36E-01
same,"dose-response signal (normalized), SI Fig 8",PfcProRS; Log[inhibitor] (M) -6.535,9.87E-01 and 8.91E-01 and 9.43E-01
same,"dose-response signal (normalized), SI Fig 8",PfcProRS; Log[inhibitor] (M) -6.796,1.03E+00 (2×) and 1.00E+00
same,"dose-response signal (normalized), SI Fig 8",PfcProRS; Log[inhibitor] (M) -7.056,9.55E-01 and 1.03E+00 (2×)
same,"dose-response signal (normalized), SI Fig 8",PfcProRS; Log[inhibitor] (M) -7.319,1.02E+00 (2×) and 9.30E-01
same,"dose-response signal (normalized), SI Fig 8",PfcProRS; Log[inhibitor] (M) -7.553,9.85E-01 and 1.03E+00 and 9.40E-01
same,"dose-response signal (normalized), SI Fig 8",PfcProRS; Log[inhibitor] (M) -7.796,9.66E-01 and 1.04E+00 and 1.00E+00
same,"dose-response signal (normalized), SI Fig 8",PfcProRS; Log[inhibitor] (M) -8.097,1.01E+00 and 9.81E-01 and 1.00E+00
same,"dose-response signal (normalized), SI Fig 8",PfcProRS; Log[inhibitor] (M) -8.398,9.48E-01 and 1.10E+00 and 1.01E+00
same,"dose-response signal (normalized), SI Fig 8",PfcProRS; Log[inhibitor] (M) -8.585,1.08E+00 and 9.61E-01 and 9.66E-01
same,PfcProRS -- best Kd,"PfcProRS; SI Fig 16a, values on -log scale",9.298

# — publication PMC9403976, “Elucidating the path to Plasmodium prolyl-tRNA synthetase inhibitors that overcome halofuginone resistance” (Nature Communications, 2022)
